According to article PMC6580371 (ACS Medicinal Chemistry Letters, 2019):
Read-outs that look alike come from different tables or passages of the source.

Columns and labels:
[1] = format: in vitro ADME; conditions: monkey
[2] = format: in vitro ADME; conditions: rat
in vivo [3] = conditions: dog, po, 2 mg/kg
[4] = format: in vivo; conditions: all species (rat, dog, monkey)
in vivo [5] = conditions: monkey, iv
[6] = format: in vitro ADME; conditions: human

In the case of O=C(N[C@H]1CCc2cc(F)cc(F)c2NC1=O)c1n[nH]c(Cc2ccccc2)n1 [Compound 6, (S)-5-benzyl-N-(7,9-difluoro-2-oxo-2,3,4,5-tetrahydro-1H-benzo[b]azepin-3-yl)-1H-1,2,4-triazole-3-carboxamide], the predicted human clearance is reported as “low clearance”, the predicted human volume is reported as “moderate volume” and the “predicted human AUC” value (40 mg twice daily) is reported as 1700 ng·h/mL. The “predicted human AUC” value (273 mg daily) was 11700 ng·h/mL, the “predicted human terminal half-life” value (human) was roughly 3.3 h and the turnover in hepatocytes [1] was “low turnover”. For the same compound, the turnover in hepatocytes [2] was “moderate turnover”, the Cmax (in vivo [3]) was 910 ± 130 ng/mL and the “clearance as % liver blood flow” value [4] was no more than 35 % liver blood flow. For the same compound, the clearance (in vivo [5]) was 6.4 ± 0.5 mL/min/kg and the turnover in hepatocytes [6] was “low turnover”.
